Measurements taken from patent publication US11118204B2, “Switchable ionic liquids for biomass pretreatment and enzymatic hydrolysis” (National Technology & Engineering Solutions of Sandia, LLC, priority 2014, dated 2021).
Where “and” joins values, the source holds several entries; their conditions need not be identical. Identical values can stand only once.

How the values were obtained:
Ctec2 = Ctec2 stability in ionic liquids (residual activity, T50^30); format: biochemical; conditions: for T50^30 (temperature at which enzyme activity is reduced by 50% following 30-minute pre-incubation): Ctec2 pre-incubated 38-80° C. in IL at 5-20%, substrates CMC, PNP-cellobiose, PNP-glucopyranoside, FIG. 1
Experimental: Enzyme stability was monitored by residual activity measurements. Ctec2 was diluted 200-fold into nine ionic liquid or buffer solutions at concentrations from 1-20 wt %. Each enzyme solution was then divided into 18 wells in a thin-walled PCR plate and incubated in thermal […] (Applied Biosystems, Veriti) at temperatures from 38-80° C. for 30 minutes. […] CMC reaction end-points were analyzed by DNS assay to detect reducing sugars. The end-points of the paranitrophenol reactions were measured by absorbance at 405 nm. […] Error was estimated by replication of both the incubation and activity measurement steps. Some solution conditions produced clearly bi-modal inactivation curves; in these cases the larger of the two transitions was reported. […] To capture the stability differences for several different enzyme classes in the multicomponent commercial enzyme mixture, the T50^30 was measured on three different representative substrates: carboxymethylcellulose (CMC), 4-Nitrophenyl β-D-glucopyranoside (PNP-glucopyranoside) and 4-Nitrophenyl β-D-cellobiose (PNP-cellobiose). […] In FIG. 1, data for acetate-based ionic liquids are shown in the left-hand panels: [Em][Ac] (open circle, solid line); [Ch][Ac] (closed circle, solid line); [Na][Ac], pH 5.2 at 25° C. (closed circle, dashed line). Data for glutamic acid-based ionic liquids are shown in the center panels: […] [Ch]2[Glu] (closed triangle, solid line); […] (open circle, dashed line). Data for succinic acid-based ionic liquids are shown in the right-hand panels: […] [Na][Sc], pH 5.2 at 25° C. (closed square, dashed line); […]

[1] = Switchgrass pretreatment in ionic liquid and enzymatic hydrolysis (sugar conversion); conditions: for pretreatment efficiency on dilution of the ionic liquid: 120° C., 3 hrs, FIG. 2B; for biomass pretreatment effectiveness (sugar conversion): pretreatment in neat ionic liquid at 90 or 120° C., hydrolysis in 50 mM sodium succinate pH 5.2, FIG. 2A
Experimental: Putnam Switchgrass (20 mesh—2 mm particle size) was used as the biomass for all experiments. Samples used to determine the pretreatment and dilution efficiency were washed free of ionic liquid with de-ionized water, and re-suspended in 50 mM sodium succinate buffer at pH 5.2. All enzyme hydrolysis reactions were performed with shaking at 50° C. and 20 mg/g 9:1 Ctec2:Htec, unless otherwise specified. Small-scale, one-pot reactions were performed in 2 ml screw-cap vials in heating blocks without mixing with 100 mg biomass at the specified ionic liquid concentration and biomass loading. Reactions were then acidified with 1 eq. of the free acid in the same vial and transferred to shaker incubators for the enzymatic hydrolysis. Larger scale one-pot reactions were performed in glass pressure tubes (Ace Glass, USA) with 2 g or 4 g biomass (Table 1). Liberated glucose and xylose were quantified with an Agilent HPLC using a Bio-Rad Aminex […] column with a 4 mM sulfuric acid mobile phase.
Data for pretreatment at 90° C. and 120° C. is shown using white bars and black bars, respectively. […] (white bars), and dilution of the ionic liquid to 25% with water.
For the data in FIG. 2C, samples were pretreated at 90° C. or 120° C., with various % IL in the liquid fraction and different wt % biomass loadings. All samples were then hydrolyzed at 25% IL concentration with 9:1 Ctec2:Htec at 20 mg/g biomass. White bars, 90° C., 16 hrs; gray bars, 120° C., 3 hrs; black bars, 120° C., 16 hrs.
In FIG. 3A and FIG. 3B, the circles represent data obtained using 10 wt % ionic liquid and the squares represent data obtained using 25 wt % ionic liquid.

[2] = ionic liquid solution
[3] = corn stover, 25 wt % ionic liquid
[4] = [Em][Ac] (20%) acidified with acetic acid to pH ~5

## C[N+](C)(C)CCO.C[N+](C)(C)CCO.N[C@@H](CCC(=O)[O-])C(=O)[O-] [[Ch]2[Glu], (choline)2 glutamate]
Ctec2
  T50^30 (temperature at which enzyme activity is reduced by 50% following 30-minute pre-incubation): lowest
Ctec2; at the lowest ionic liquid concentrations
  CTec2 activity: very low
[1]; 25% solution, pretreatment 120° C., 16 hours, one-pot
  performance (glucose yield) relative to the neat ionic liquid: ~90%
[1]
  pretreatment efficiency on dilution of the ionic liquid: consistently high pretreatment efficiency
  biomass pretreatment effectiveness (sugar conversion): marked improvement
[2]
  solution pH: 10-11
[3]
  glucose yield: ~95%

## C[N+](C)(C)CCO.C[N+](C)(C)CCO.O=C([O-])CCC(=O)[O-] [[Ch]2[Sc], (choline)2 succinate]
[1]
  pretreatment efficiency on dilution of the ionic liquid: monotonic decrease in efficiency
  biomass pretreatment effectiveness (sugar conversion): marked improvement
[1]; pretreatment at 120° C.
  sugar release relative to [Ch][Glu]: twice as much sugar
[2]
  solution pH: ~7

## C[N+](C)(C)CCO.C[N+](C)(C)CCO.O=C([O-])C(=O)[O-] [[Ch]2[oxalic acid], reference compound]
[1]; ionic liquid used neat
  Glucose conversion: 48%
  glucose conversion above hot water pretreatment: ~15%

## CC(=O)[O-].CCn1cc[n+](C)c1 [[Em][Ac], 1-ethyl-3-methylimidazolium acetate]
Ctec2; [4]
  stability of the commercial enzyme mixture on CMC: slightly
  stability of the commercial enzyme mixture on the para-nitrophenol substrates: decreased significantly

## Choline lysinate [[Ch][Lys], reference compound]
Ctec2
  T50^30 (temperature at which enzyme activity is reduced by 50% following 30-minute pre-incubation): similarly low
[2]
  solution pH: ~14 and ~12

## Choline succinate [[Ch][Sc]]
[1]
  biomass pretreatment effectiveness (sugar conversion): poorly

## choline glutamate [[Ch][Glu]]
[1]; 10 wt % IL, 10% switchgrass, pretreatment at 120° C. with [Ch]2[Glu], one-pot hydrolysis with CTec2
  Glucose conversion: 91%
[1]; 25 wt % IL, 10% switchgrass, pretreatment at 120° C. with [Ch]2[Glu], one-pot hydrolysis with CTec2
  Glucose conversion: 82%
[1]
  biomass pretreatment effectiveness (sugar conversion): poorly
